Test results published in PubChem BioAssay AID1595 (NINDS Approved Drug Screening Program, 2009).
pEC50: −log10 of the molar value. Results filed as inconclusive are left out.

Tested on: Drosophila SCA1 polyglutamine model, toxicity suppression
Experiment: Polyglutamine toxicity reduction dose response, whole organism Drosophila SCA1 model (AID 1595)

Compound | pEC50
C=C1C2CC[C@H]3[C@]4(C)C[C@H](OC5OC(CO)C(OS(=O)(=O)O)C(OS(=O)(=O)O)C5OC(=O)CC(C)C)C[C@@H](C(=O)O)[C@H]4CC[C@]3(C2)[C@H]1O (some centres undefined) | 6.65
Cc1cc(C(C)(C)C)cc(C)c1CC1=NCCN1 | 6.60
CC(=O)OCC(=O)[C@H]1CCC2C3CCC4=CC(=O)CC[C@]4(C)C3CC[C@@]21C (some centres undefined) | 5.52
C[C@@H]1O[C@@H](O[C@H]2[C@H](Oc3cc(O)c4c(c3)O[C@H](c3ccc(O)cc3)CC4=O)O[C@H](CO)[C@@H](O)[C@@H]2O)[C@H](O)[C@H](O)[C@H]1O | 5.30
C[N+](C)(C)CCOC(N)=O | 5.52
NS(=O)(=O)c1cc(C2(O)NC(=O)c3ccccc32)ccc1Cl (centres undefined) | 5.30
N#C/C(=C\c1ccc(O)cc1)C(=O)O | 7.30
CC(N)CCCC(C)(C)O (centres undefined) | 7.30
OCC(S)CS (centres undefined) | 6.52
CCCCCCCCCCCCCCCC(=O)OC/C=C(C)/C=C/C=C(C)/C=C/C1=C(C)CCCC1(C)C | 6.56
C[C@@H]1CC2C3CCC4=CC(=O)C=C[C@]4(C)[C@@]3(F)[C@@H](O)C[C@]2(C)[C@@]1(O)C(=O)COP(=O)(O)O (some centres undefined) | 6.12
C[N+](C)(C)CC(=O)[O-] | 5.52
CN1CCOC(c2ccccc2)c2ccccc2C1 (centres undefined) | 7.30
NC(Cc1cc(I)c(Oc2ccc(O)c(I)c2)c(I)c1)C(=O)O (centres undefined) | 5.30
